Source: a melting point compilation (Tetko et al.; mined from patent text by program, amines drawn as free bases though some values may be those of a salt)

With `CN(C)CCCN(C=O)C1CCC2C3CCc4ccccc4C3CCC21C` (centres undefined) the melting point was 123 to 125 °C. Compound `CCOCc1nc2c(N)nc(C)c(C)c2n1CCNC(=O)NC1CCCCC1` has a melting point of 188 to 190 °C. For `CCOC(=O)c1c(-c2cc(C(C)(C)C)c(O)c(C(C)(C)C)c2)c2cc3c(cc2oc1=O)CCC3`, the melting point was 208 to 209 °C. `COc1ccc2cnc(Nc3ccc(F)c(C)c3)nc2c1C1CCCC1` gave a melting point of 208 to 209 °C. With `CCCCCCOc1ccc2c(ccc3nc(OCCCCCC)ccc32)n1` the melting point was 91 °C. Work on `CC1CC(=O)NN=C1c1ccc(-n2cnc3c2CCCC3)nc1` (centres undefined) yielded a melting point of 234 to 235 °C. With `COc1cc(C=C2SC(N3CCOCC3)=NC2=O)cc(-c2ccc(O)c(C34CC5CC(CC(C5)C3)C4)c2)c1O` the melting point was 335 to 338 °C. Work on `Cc1nc2ccc(Nc3nccc(-c4ccc(N5CCNCC5)nc4)n3)cc2[nH]1` yielded a melting point of 245 to 250 °C. Work on `CCOC(=O)c1scnc1Cl` yielded a melting point of 43 to 45 °C. `CCCCCCCCNC(=O)CCCC(C)(C)c1ccc(O)cc1O` showed a melting point of 110 to 113 °C. With `CC(C)CC(=O)Nc1cccc(-c2ccnc3c(-c4ccc(Cl)cc4)cnn23)c1` the melting point was 215 to 217 °C. `O=C(Nc1ccccc1)O[C@@H]1CN=C(c2ccccc2)O[C@H]1c1ccccc1` (racemic) showed a melting point of 111 °C. Compound `COc1ccc(C2=NN(Cc3ccncc3)C(=O)[C@H]3CC=CC[C@@H]23)cc1OC` (relative stereo) has a melting point of 121 to 124 °C. For `CC(C)N(C)C(=O)NS(=O)(=O)c1cc(-n2c(=O)cc(C(F)(F)F)n(C)c2=O)c(F)cc1Cl`, the melting point was 145 °C. With `CCCS(=O)c1ccc(-c2coc3ccc(-c4nnc(C)o4)cc23)cc1` (centres undefined) the melting point was 140 to 141 °C. Compound `CC(C)CC(NC(=O)C(Cc1c[nH]cn1)NC(=O)C(CC(=O)c1ccccc1)Cc1cccc2ccccc12)C(O)C(=O)OC(C)C` (centres undefined) has a melting point of 108 to 118 °C. `O=C(Nc1ccc(-c2ccc(C(=O)N3CCN4CCC3CC4)o2)cc1)c1ccccc1` gave a melting point of 254 °C. Compound `O=c1c2c(Cc3ccc(OC(F)(F)F)cc3)n[nH]c2c2cccnc2n1-c1ccccc1` has a melting point of 216 to 218 °C. In the case of `CN(C)C(=O)C(=O)N1CN(C(=O)c2c(F)cccc2F)C(=O)N(c2ccc(Oc3ccc(C(F)(F)F)cc3Cl)cc2F)C1`, the melting point is reported as 98 to 100 °C. `CC(C)CNC(=O)[C@H](C)C[C@H](O)[C@H](CC1CCCCC1)NC(=O)[C@H](Cc1cscn1)NC(=O)OC(C)(C)C` gave a melting point of 178 to 180 °C. For `CC(=O)C1=CCC2C3CCC4CC(O)CCC4(C)C3C(OC(=O)CCl)CC12C` (centres undefined), the melting point was 160 to 162 °C. For `CC(C)(C)OC(=O)NC(COCCCN)(COCCCN)COCCCN`, the melting point was 96 to 98 °C. With `CC1NC2=NCCN2C1c1ccccc1` (centres undefined) the melting point was 179 °C. Work on `C=C(CO)C(C(=O)OC(c1ccccc1)c1ccccc1)N1C(=O)C2N=C(Cc3ccccc3)OC21` (centres undefined) yielded a melting point of 40 to 55 °C. For `CS(=O)c1nc(-c2cc(C(C)(C)C)c(O)c(C(C)(C)C)c2)c[nH]1` (centres undefined), the melting point was 106 to 108 °C. With `COC(=O)COc1c(C)cc(SCc2ccc(-c3ccc(C(F)(F)F)cn3)cc2)c2c1CCO2` the melting point was 94 to 95 °C. `CCOC(=O)c1ccc(NO)cc1` gave a melting point of 72.5 °C. `CCOP(=O)(CC(=O)Nc1cc2c(Nc3ccc(Cl)c(Br)c3)ncnc2cn1)OCC` gave a melting point of 113 to 116 °C. `C[C@@H]1O[C@@]1(Cn1cncn1)c1cc(F)ccc1F` gave a melting point of 69 °C. Compound `CC(=O)N1C(C)(C)CC(OC(=O)C(Cc2cc(C(C)(C)C)c(O)c(C(C)(C)C)c2)(Cc2cc(C(C)(C)C)c(O)c(C(C)(C)C)c2)C(C)=O)CC1(C)C` has a melting point of 165 to 166 °C. `CCC(=O)NC1CCC(CNc2nc3c(s2)CCOc2ccccc2-3)CC1` (centres undefined) gave a melting point of 70 to 73 °C. Compound `O=c1c2cc(Oc3ccc(Cl)cc3)ccc2ccn1Cc1cccnc1` has a melting point of 116 °C. Work on `COC(=O)C=Cc1cnc(Cl)cc1NCc1ccc(OC)c(Cl)c1` yielded a melting point of 170 to 171 °C. For `COc1cc(Br)ccc1Oc1ccccc1O`, the melting point was 107 to 109 °C. `CCCCCCCCCCCCCC(=O)c1cc(O)c(C)c(C)c1O` gave a melting point of 100 °C. `N#CC1c2ccccc2CSc2ccccc21` (centres undefined) gave a melting point of 128 to 130 °C. `CC(C)Cc1ccc(C(C)C(=O)OC2OC(=O)c3ccccc32)cc1` (centres undefined) gave a melting point of 62 to 65 °C. For `CCOCCOCCOCC1(c2ccc(Oc3cncc4sc(-c5nnc(N)o5)cc34)cc2)CC1`, the melting point was 113 to 114 °C. For `CCOC(=O)c1c(Cn2cncn2)nc2sc3c(c2c1-c1cccc(OC)c1OC)CCCN3C(=O)OCc1ccccc1`, the melting point was 184 to 185 °C. With `Cc1ccc(Sc2ncnc3ccccc23)cc1` the melting point was 96 °C. `Cc1oc(-c2ccccc2)nc1CCc1ccc(/C=C/C=C/CO)cc1` showed a melting point of 117 to 118 °C. Compound `COC(=O)c1ccc2c(c1)CN(C(=O)OCc1ccccc1)C2` has a melting point of 59 to 65 °C. With `C=Cn1ccnc1C(O)(c1ccc(Cl)cc1)c1ccc(Cl)cc1` the melting point was 174 °C. `CCc1ccc(-c2nn(C)c(=O)c3ccccc23)c(CC)c1` showed a melting point of 94.5 to 96.5 °C. For `CCCOc1ccc(O)cc1OC`, the melting point was 54 to 56 °C. Compound `COC(=O)c1cc(S(=O)(=O)N(C)C)c(F)c(F)c1Nc1ccc(I)cc1Cl` has a melting point of 154 to 156 °C. Compound `CC(C)C(NC(=O)Cn1cccc(NC(=O)Nc2ccccc2)c1=O)C(=O)C(F)(F)F` (centres undefined) has a melting point of 94 to 106 °C. Work on `CCOCOC1(C(=O)COC(C)=O)C(C)CC2C3CC(C)C4=CC(=O)C=CC4(C)C3C(O)CC21C` (centres undefined) yielded a melting point of 137 to 139 °C. `CC(=O)c1ccc2c(c1)CCc1ccc(C(=O)O)cc1S2(=O)=O` showed a melting point of 219 to 221 °C. Compound `CC(C)(C)C(NC(=O)c1ccc(Cl)cc1)NC(=NC#N)Nc1cccc(F)c1` (centres undefined) has a melting point of 167 to 170 °C. `COc1ccc(-n2ncc(C(=O)O)c2Cl)cc1` gave a melting point of 241 to 242 °C. `Cc1c(Cl)ncc2ncc(-c3ccccc3)cc12` showed a melting point of 136 °C. Work on `CCN(CCOC)C(=O)c1cc(-c2ccccc2)c(=O)[nH]c1-c1c(Cl)cccc1C#N` yielded a melting point of 184 to 186 °C. Work on `NC(=O)N(O)CC1CCCCCC1` yielded a melting point of 110 to 112 °C. For `COc1ccc(NC(C)=C2C(=O)OC(=O)C(C(C)=O)=C2O)cc1`, the melting point was 212 to 214 °C. In the case of `CC(=O)C(=NNc1ccc(C)cc1)Sc1ccc(Cl)cc1`, the melting point is reported as 133 to 136 °C. In the case of `C#CCN(C)c1nc(C(=O)N(C)C)cs1`, the melting point is reported as 99 to 100 °C. With `COC(=O)C1=CCC(=C2CCc3nc4c(nc3C2=O)C(C)(C)CCC4(C)C)C=C1` the melting point was 149 to 151 °C. Compound `O=[N+]([O-])c1cccc2cc(-c3ccccn3)[nH]c12` has a melting point of 162 to 163 °C. Work on `Cc1ccc2nc(Cl)c(Cl)nc2c1` yielded a melting point of 112 to 115 °C. For `COC(=O)c1ccc(OCCNC(=O)c2ccc(Br)cc2)cc1`, the melting point was 134 to 136 °C. `NS(=O)(=O)c1cc2cc[nH]c(=O)c2o1` showed a melting point of 290 to 291 °C. Work on `NC(=O)c1ccc(-c2ccc3nnn(Cc4ccc5ncccc5c4)c3n2)cc1F` yielded a melting point of 198 to 200 °C. With `CC(=O)N1C(=O)C(C(=O)Cc2ccccc2)c2ccccc21` (centres undefined) the melting point was 149 to 151 °C. `CC(C)(C)OC(=O)NC1CCC2(CC1)CSC1=C(O2)c2ccccc2C(=O)C1=O` (centres undefined) showed a melting point of 224 to 225 °C. Compound `O=C(CCc1ccncc1)c1c(O)c2cccnc2n(-c2cccc([N+](=O)[O-])c2)c1=O` has a melting point of 174 to 177 °C. For `COCCOc1ccc(CCC(=O)NS(=O)(=O)c2ccc(Cl)cc2)c(Oc2ncc(C(F)(F)F)cc2Cl)c1`, the melting point was 140 to 142 °C. With `CCOC(=O)c1cnc2c(cnn2Cc2ccco2)c1OCC` the melting point was 93 to 96 °C. Work on `COc1ccc(C(=O)C2(O)CCCCC2C(=O)NCC(C)C)cc1` (centres undefined) yielded a melting point of 143 to 147 °C. With `COCOCC1Oc2c(OC)cccc2C1=O` (centres undefined) the melting point was 71 to 72 °C. With `COC(=O)c1c(Br)ccc2nn(C)c(C)c12` the melting point was 109 to 111 °C. Work on `O=[N+]([O-])c1ccc(OCc2ccccc2)cc1OCc1ccccc1` yielded a melting point of 101 to 103 °C. With `CCCCn1c(=O)c(NC(=O)Nc2c(C(C)C)cc(N)cc2C(C)C)c(-c2cccc(OCCCO)c2)c2cccnc21` the melting point was 153 to 155 °C. With `Cc1nc(-c2ccccc2)nc(OCC(=O)O)c1C` the melting point was 175 to 177 °C. Work on `COC(=O)c1ccc2cc(CCCO)oc2c1` yielded a melting point of 63 to 65 °C. Work on `OC(CCCl)COc1ccc(Br)cc1` (centres undefined) yielded a melting point of 75 to 78 °C. Compound `O=c1[nH]nc2n1-c1ccc(Cl)cc1C(c1ccccc1Cl)=CC2` has a melting point of 250 to 251 °C. Work on `CS(=O)(=O)Nc1cccc(Nc2nc(NCCO)c3nc[nH]c3n2)c1` yielded a melting point of 163 to 166 °C. Compound `OCc1cn(-c2ccccc2)nc1OCc1ccccc1` has a melting point of 93 to 94 °C. In the case of `CCOC(=O)[C@H]1C2C[C@@H](O)[C@](O)(C(=O)OCc3ccccc3)[C@@H]21` (some centres undefined), the melting point is reported as 112 to 114 °C. `O=C(O)C(=O)c1ccc(OCCOc2ccnc3ccccc23)cc1` gave a melting point of 271 °C. Work on `O=C1CCCCN1S(=O)(=O)c1ccc(N2CCCCCCC2)cc1` yielded a melting point of 150 to 152 °C. In the case of `NC(=O)C1CCc2c(C(=O)c3ccc(Cl)cc3)cccc21` (centres undefined), the melting point is reported as 159 to 161 °C. In the case of `CCOC(=O)c1cn(C2CC2)c2cc(Br)c(F)cc2c1=O`, the melting point is reported as 251 to 253 °C. With `O=C(Nc1ccc(Cl)cc1)NS(=O)(=O)c1ccc2c(c1)CCCC2` the melting point was 163 to 165 °C. `CCOC(=O)CCSc1nnsc1-c1ccccc1` showed a melting point of 57.5 to 58.5 °C. For `COc1cc(C(=O)NS(=O)(=O)c2ccccc2Br)ccc1Cc1cccc2ccc(CCCCC(=O)N(C)C)cc12`, the melting point was 91 to 97 °C. For `O=C(O)c1cccc(-c2ccc3c(c2)N(Cc2cccc(Cl)c2Cl)CC3)c1`, the melting point was 185 to 186 °C. `O=C(c1ccco1)c1cc([N+](=O)[O-])ccc1Cl` showed a melting point of 93 to 96 °C. Compound `CCOC(=O)Cc1csc(NC(=O)c2ccc(F)cc2)n1` has a melting point of 110 to 112 °C. `NOCc1ccc2c(c1)-c1n[nH]c(=O)c3cccc(c13)O2` showed a melting point of 294 to 296 °C. `CC(C)(C)CC(C)(C)c1cc(-n2nc3ccc([N+](=O)[O-])cc3n2)c(O)c(C(C)(C)c2ccccc2)c1` showed a melting point of 153 to 156 °C. `C[C@H](Cn1cccn1)NC(=O)c1c[nH]c2ncc(-c3nn(C)c4cc(F)ccc34)nc12` showed a melting point of 252 to 253 °C. `CC(C)=CCn1c(=S)sc2c(=O)[nH]c(N)nc21` gave a melting point of over 320 °C. `Cc1cc(C=O)c2ccccc2c1O` gave a melting point of 160 to 161 °C. With `Cc1ccn(-c2nc3ccccc3c(=O)[nH]2)n1` the melting point was 162 to 165 °C. Compound `Nc1nc2[nH]c3ccccc3c2c(=O)[nH]1` has a melting point of over 340 °C. Work on `COc1ccc(O)c(NC(=O)C(Br)c2ccccc2)c1` (centres undefined) yielded a melting point of 145 to 147 °C. In the case of `Cc1cc(C23CC4CC(CC(C4)C2)C3)ccc1NS(=O)(=O)c1cc([N+](=O)[O-])ccc1Cl`, the melting point is reported as 238 °C.
